The target of the test is skeletal myofibrils (Rabbit Psoas) myosin ATPase. The test can be described thus: Skeletal Myofibril ATPase Assay. The test is classed as biochemical. The following applies: PK/LDH coupled, absorbance at 340 nm. On the procedure: Overview: Myosin ATPase activity was assessed by using a coupled reaction system, in which ADP generated by the myosin ATPase function was coupled to the disappearance of NADH through the pyruvate kinase/lactate dehydrogenase (PK-LDH) system. Myosin ATPase activity produces ADP, which was used as a substrate for PK to produce pyruvate and regenerate ATP. The pyruvate was then used as a substrate by LDH to oxidize NADH to NAD+. The rate of the reaction was monitored through the time-dependent disappearance of NADH using absorbance at 340 nm. Inhibition of ATPase activity by the assayed compounds was indicated by a reduced rate of NADH loss, relative to vehicle-treated controls, over the experimental time window. To assess the selectivity of the assayed compounds for skeletal myofibrils, the compounds were counter-screened in cardiac myofibrils.
Materials: The following stock solutions and reagents were used in the Skeletal Myofibril ATPase Assay:
Stock Solutions of pCa buffer. Combine PIPES, CaCl2, and EGTA solutions with 70 mL of water. Adjust pH to 7.0 and bring final volume to 100 mL.
Buffer A & Buffer B. Buffers were stored on ice until use.
Skeletal Myofibril ATPase Assay Procedure: BSA, ATP, NADH, PEP, and DTT solutions were thawed at room temperature, then transferred to ice. Pellet-frozen myofibrils (approximately twice the required volume) were transferred into a sufficiently large tube and capped. Myofibrils were thawed by rolling in a water bath for approximately 15 min at room temperature and cooled on ice. Buffers A and B were prepared by adjusting volumes as necessary for required number of wells and stored on ice. 0.5 μL of the compounds to be assayed were added into wells of a 384-well plate. Buffers A and B were mixed by inversion immediately prior to use, then 25 μL of each was dispensed using a Multidrop dispenser (Buffer A first, then Buffer B). The absorbance within the wells was measured at 340 nm, using a kinetic protocol in which the wells are read every 1.5-2 min for 1 h. The reaction rate was qualitatively assessed by subtracting the minimum absorbance value from the maximum value for each well, using either the SoftMax Pro plate reader software or a spreadsheet program such as Excel. Using GraphPad Prism 8.0, the data was normalized, with 100% activity defined as the absorbance change in the 1% DMSO vehicle wells and 0% assigned to no change in absorbance over the course of the experiment. The normalized data were fit to a variable-slope four-parameter logistic model, constraining the bottom to be 0 or greater. Compounds of Table 1 to 3 were tested and results of the assay appear in Table 4 herein. A=IC50 is less than or equal to 10 μM; B=IC50 is greater than 10 μM and less than 100 μM; C=IC50 is greater than 100 μM.

Molecules are shown by their SMILES.

For orientation: IC50 means the concentration needed to halve the response being measured. Low values mean inhibition by little substance, high ones a need for much substance. Consider `O=c1ccc(-c2cnc(OCC(F)(F)F)nc2)nn1CCC1CCC1` [Compound 1, 2-(2-cyclobutylethyl)-6-(2-(2,2,2-trifluoroethoxy)pyrimidin-5-yl)pyridazin-3(2H)-one], for which the half-maximal inhibitory concentration (IC50) was ≤ 10 µM.

On to `O=c1ccc(-c2cnc(OCC(F)(F)F)nc2)nn1CCCc1ccccc1` [Compound 2, 2-(3-phenylpropyl)-6-(2-(2,2,2-trifluoroethoxy)pyrimidin-5-yl)pyridazin-3(2H)-one], for which the half-maximal inhibitory concentration (IC50) was ≤ 10 µM.

Consider `CC1CC1CCn1nc(-c2cnc(OCC(F)(F)F)nc2)ccc1=O` (centres unmarked) [Compound 3, 2-(2-(2-methylcyclopropyl)ethyl)-6-(2-(2,2,2-trifluoroethoxy)pyrimidin-5-yl)pyridazin-3(2H)-one], for which the IC50 is ≤ 10 µM.

`O=c1ccc(-c2cnc(OCC(F)(F)F)nc2)nn1CCc1ccccc1` [Compound 4, 2-phenethyl-6-(2-(2,2,2-trifluoroethoxy)pyrimidin-5-yl)pyridazin-3(2H)-one]: the concentration for half-maximal inhibition (IC50) is ≤ 10 µM.

For the molecule `O=c1ccc(-c2cnc(OCC(F)(F)F)nc2)nn1CCC1CC1` [Compound 5, 2-(2-cyclopropylethyl)-6-(2-(2,2,2-trifluoroethoxy)pyrimidin-5-yl)pyridazin-3(2H)-one], the half-inhibitory concentration (IC50) is ≤ 10 µM.

Turning to `O=c1ccc(-c2cnc(OCC(F)(F)F)nc2)nn1CCc1ccc(Cl)cc1` [Compound 6, 2-(4-chlorophenethyl)-6-(2-(2,2,2-trifluoroethoxy)pyrimidin-5-yl)pyridazin-3(2H)-one], the IC50 was ≤ 10 µM.

On to `O=c1ccc(-c2cnc(OCC(F)(F)F)nc2)nn1CCC12CC(C1)C2` [Compound 7, 2-(2-(bicyclo[1.1.1]pentan-1-yl)ethyl)-6-(2-(2,2,2-trifluoroethoxy)pyrimidin-5-yl)pyridazin-3(2H)-one], for which the IC50 was ≤ 10 µM.

Consider `CCCn1nc(-c2cnc(OCC(F)(F)F)nc2)ccc1=O` [Compound 8, 2-propyl-6-(2-(2,2,2-trifluoroethoxy)pyrimidin-5-yl)pyridazin-3(2H)-one], for which the IC50 was ≤ 10 µM.

As to `O=c1ccc(-c2cnc(OCC(F)(F)F)nc2)nn1CCc1cncc(F)c1` [Compound 9, 2-(2-(5-fluoropyridin-3-yl)ethyl)-6-(2-(2,2,2-trifluoroethoxy)pyrimidin-5-yl)pyridazin-3(2H)-one], the half-maximal inhibitory concentration (IC50) is ≤ 10 µM.

`O=c1ccc(-c2cnc(OCC(F)(F)F)nc2)nn1CCc1ccccn1` [Compound 10, 2-(2-(pyridin-2-yl)ethyl)-6-(2-(2,2,2-trifluoroethoxy)pyrimidin-5-yl)pyridazin-3(2H)-one]: the IC50 is ≤ 10 µM.

For the molecule `O=c1ccc(-c2ccc(OC(F)F)cc2)nn1CCc1ccc(Cl)cc1` [Compound 11, 2-(4-chlorophenethyl)-6-(4-(difluoromethoxy)phenyl)pyridazin-3(2H)-one], the 50% inhibitory concentration (IC50) was ≤ 10 µM.

Turning to `O=c1ccc(-c2ccc(OC(F)F)nc2)nn1CCc1ccc(Cl)cc1` [Compound 12, 2-(4-chlorophenethyl)-6-(6-(difluoromethoxy)pyridin-3-yl)pyridazin-3(2H)-one], the IC50 was ≤ 10 µM.

Turning to `CC(Cn1nc(-c2cnc(OCC(F)(F)F)nc2)ccc1=O)c1ccccc1` (centres unmarked) [Compound 13, 2-(2-phenylpropyl)-6-(2-(2,2,2-trifluoroethoxy)pyrimidin-5-yl)pyridazin-3(2H)-one], the half-maximal inhibitory concentration (IC50) was ≤ 10 µM.

As for `COc1ccc(-c2ccc(=O)n(CC3CCCCC3)n2)cc1` [Compound 14, 2-(cyclohexylmethyl)-6-(4-methoxyphenyl)pyridazin-3(2H)-one], the IC50 is ≤ 10 µM.

Turning to `O=c1ccc(-c2ccc(Cl)cc2)nn1CCc1ccccc1` [Compound 15, 6-(4-chlorophenyl)-2-phenethylpyridazin-3(2H)-one], the half-maximal inhibitory concentration (IC50) was ≤ 10 µM.

Turning to `COc1ccc(-c2ccc(=O)n(CCc3ccccc3)n2)cc1` [Compound 16, 6-(4-methoxyphenyl)-2-phenethylpyridazin-3(2H)-one], the IC50 is ≤ 10 µM.

In the case of `CC(C)(C)CCn1nc(-c2cnc(OCC(F)(F)F)nc2)ccc1=O` [Compound 17, 2-(3,3-dimethylbutyl)-6-(2-(2,2,2-trifluoroethoxy)pyrimidin-5-yl)pyridazin-3(2H)-one], the IC50 was in the range of 10 to 100 µM.

In turn, `O=c1ccc(-c2ccccc2)nn1CC(O)COCc1ccccc1Cl` (centres unmarked) [Compound 18, 2-(3-((2-chlorobenzyl)oxy)-2-hydroxypropyl)-6-phenylpyridazin-3(2H)-one] showed an IC50 of 10 to 100 µM.

As to `O=c1ccc(-c2cnc(OCC(F)(F)F)nc2)nn1CCc1ccncc1` [Compound 19, 2-[2-(pyridin-4-yl)ethyl]-6-[2-(2,2,2-trifluoroethoxy)pyrimidin-5-yl]pyridazin-3-one], the IC50 was ≤ 10 µM.

`CSc1ccc(-c2ccc(=O)n(C/C=C/c3ccccc3)n2)cc1` [Compound 20, 2-cinnamyl-6-(4-(methylthio)phenyl)pyridazin-3(2H)-one]: the IC50 is ≤ 10 µM.

Take `O=c1ccc(-c2ccc(Cl)cc2)nn1CC1CCCCC1` [Compound 21, 6-(4-chlorophenyl)-2-(cyclohexylmethyl)pyridazin-3(2H)-one]: the half-inhibitory concentration (IC50) is ≤ 10 µM.

In turn, `O=c1ccc(-c2ccc3c(c2)OCCCO3)nn1CCOc1ccc(F)cc1` [Compound 22, 6-(3,4-dihydro-2H-benzo[b][1,4]dioxepin-7-yl)-2-(2-(4-fluorophenoxy)ethyl)pyridazin-3(2H)-one] registered an IC50 of 10 to 100 µM.

In turn, `N#CCn1nc(-c2ccc(Br)cc2)ccc1=O` [Compound 23, 2-(3-(4-bromophenyl)-6-oxopyridazin-1(6H)-yl)acetonitrile] came in with an IC50 of 10 to 100 µM.

In the case of `CCOc1ccc(-c2ccc(=O)n(CCNC(=O)CC3CCCC3)n2)cc1` [Compound 24, 2-cyclopentyl-N-(2-(3-(4-ethoxyphenyl)-6-oxopyridazin-1(6H)-yl)ethyl)acetamide], the concentration for half-maximal inhibition (IC50) was > 100 µM.

In turn, `N#CCn1nc(-c2cnc(OCC(F)(F)F)nc2)ccc1=O` [Compound 25, 2-(6-oxo-3-(2-(2,2,2-trifluoroethoxy)pyrimidin-5-yl)pyridazin-1(6H)-yl)acetonitrile] had a concentration for half-maximal inhibition (IC50) of 10 to 100 µM.

The molecule `CC(C)OCCn1nc(-c2ccc3c(c2)OCCCO3)ccc1=O` [Compound 26, 6-(3,4-dihydro-2H-benzo[b][1,4]dioxepin-7-yl)-2-(2-isopropoxyethyl)pyridazin-3(2H)-one] yielded an IC50 of 10 to 100 µM.

On to `C=C(C)Cn1nc(-c2ccc(Br)cc2)ccc1=O` [Compound 27, 6-(4-bromophenyl)-2-(2-methylallyl)pyridazin-3(2H)-one], for which the half-maximal inhibitory concentration (IC50) was in the range of 10 to 100 µM.

For the molecule `CCOc1ccc(-c2ccc(=O)n(CCNC(=O)C3CCCC3)n2)cc1` [Compound 28, N-(2-(3-(4-ethoxyphenyl)-6-oxopyridazin-1(6H)-yl)ethyl)cyclopentanecarboxamide], the IC50 was > 100 µM.

On to `CC(=O)NCCn1nc(-c2ccc(OC(F)F)cc2)ccc1=O` [Compound 29, N-(2-(3-(4-(difluoromethoxy)phenyl)-6-oxopyridazin-1(6H)-yl)ethyl)acetamide], for which the half-inhibitory concentration (IC50) was > 100 µM.

On to `CS(=O)(=O)NCCn1nc(-c2ccc(OC(F)F)nc2)ccc1=O` [Compound 30, N-(2-(3-(6-(difluoromethoxy)pyridin-3-yl)-6-oxopyridazin-1(6H)-yl)ethyl)methanesulfonamide], for which the IC50 was > 100 µM.

In the case of `CC1(Cn2nc(-c3ccc(OC(F)F)nc3)ccc2=O)COC1` [Compound 31, 6-(6-(difluoromethoxy)pyridin-3-yl)-2-((3-methyloxetan-3-yl)methyl)pyridazin-3(2H)-one], the half-maximal inhibitory concentration (IC50) is > 100 µM.

`CC1(Cn2nc(-c3cnc(OCC(F)(F)F)nc3)ccc2=O)COC1` [Compound 32, 2-((3-methyloxetan-3-yl)methyl)-6-(2-(2,2,2-trifluoroethoxy)pyrimidin-5-yl)pyridazin-3(2H)-one]: the IC50 is > 100 µM.

In the case of `CCNC(Cn1nc(-c2ccc(OC(F)F)nc2)ccc1=O)C(F)(F)F` (centres unmarked) [Compound 33, 6-(6-(difluoromethoxy)pyridin-3-yl)-2-(2-(ethylamino)-3,3,3-trifluoropropyl)pyridazin-3(2H)-one], the half-maximal inhibitory concentration (IC50) was > 100 µM.

Consider `O=c1ccc(-c2ccc(OC(F)F)nc2)nn1CCO` [Compound 34, 6-(6-(difluoromethoxy)pyridin-3-yl)-2-(2-hydroxyethyl)pyridazin-3(2H)-one], for which the IC50 is > 100 µM.

Consider `O=c1ccc(-c2ccc(Cl)cc2)nn1CC1CCOCC1` [Compound 35, 6-(4-chlorophenyl)-2-((tetrahydro-2H-pyran-4-yl)methyl)pyridazin-3(2H)-one], for which the IC50 is > 100 µM.
